Each structure is given as a SMILES string. Where two headings read alike, the source gives them in different places.

From patent US20220267309A1, “DIMERIC OR POLYMERIC FORM OF MUTANT IDH INHIBITOR” (EPITAS BIOSCIENCES (SHANGHAI) CO., LTD., priority 2019, published 2022) come the findings set out here.

Holding throughout (type): cell-based
The target in one assay is T1, IDH1/R132H (Homo sapiens, UniProt O75874, R132H).
T1 construct: expressed in transfected cells; host or cells: U87MG glioma cells
As to the kind of experiment: Inhibitory activity against mutant IDH1/R132H at the cellular level (extracellular 2-HG, U87MG cells). As to the method: (§1) 2-Hydroxyglutarate dehydrogenase (2HGDH) can reduce NAD+ to NADH in the presence of 2-HG. The later can be quantitatively detected by diaphorase and its substrate Resazurin.
(§2) The cells were digested with trypsin and seeded in a 96-well plate at a density of 1×10^4 with a medium of 200 μL and cultured in a 37° C. incubator overnight. The next day, the test compound was added to a final concentration of 0.1% for DMSO. […] The protein and other components in the culture medium that may interfere with the results were filtered, and the follow-up method was used to detect the content of 2-HG.
(§3) Extracellular 2-HG Detecting System:
(§4) (1) 50 μL reaction system: reaction buffer (50 mM Tris pH7.5, 100 mM NaCl, 20 mM MgCl2, 0.05% BSA), in which the final concentration of NAD+ was 40 μM, the final concentration of 2HGDH was 20 nM, and the test sample was added to 5 μL of culture medium; the reaction solution was mixed and centrifuged, and the reaction was carried out for 1 hour at 25° C. in the dark;
(§5) Preparation of standard curve of 2-HG: the stock solution of 2-HG was diluted to 20 μM with reaction buffer, and a 2-fold gradient diluting was performed for a total of 6 points. Afterwards the above-mentioned 2-HG was measured according to the extracellular 2-HG detecting system, and a standard curve was calculated and drawn.

A further assay has as its target T2, IDH1/R132C (Homo sapiens, UniProt O75874, R132C).
T2 construct: the fibrosarcoma cell HT-1080 containing the IDH1/R132C mutation; endogenous in cells; host or cells: HT-1080 fibrosarcoma cells
As to the kind of experiment: Inhibitory activity against mutant IDH1/R132C at the cellular level (extracellular 2-HG, HT-1080 cells). How it is done: as §1, §2, §3, §4, §5

Another assay addresses T3, IDH2/R140Q (Homo sapiens, UniProt P48735, R140Q).
T3 construct: expressed in transfected cells; host or cells: U87MG glioma cells
T3 sequence (P48735 40-452 R140Q): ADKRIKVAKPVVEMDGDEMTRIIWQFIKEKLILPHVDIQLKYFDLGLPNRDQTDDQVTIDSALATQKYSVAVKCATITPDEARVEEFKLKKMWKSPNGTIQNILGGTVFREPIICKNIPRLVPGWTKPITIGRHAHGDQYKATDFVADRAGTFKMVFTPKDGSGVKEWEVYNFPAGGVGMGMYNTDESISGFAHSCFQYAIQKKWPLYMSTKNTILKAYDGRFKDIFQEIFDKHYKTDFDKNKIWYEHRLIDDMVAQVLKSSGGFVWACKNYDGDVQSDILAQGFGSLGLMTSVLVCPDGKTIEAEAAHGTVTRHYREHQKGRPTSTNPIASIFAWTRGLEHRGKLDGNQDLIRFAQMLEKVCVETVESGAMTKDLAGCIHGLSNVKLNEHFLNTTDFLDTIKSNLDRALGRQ
The experiment in a line: Inhibitory activity against mutant IDH2/R140Q at the cellular level (extracellular 2-HG, U87MG cells). To be noted: glioma cell U87MG overexpressing IDH2/R140Q; for IC50: 2-HG in culture medium. As to the method:
as §1, §2, §3, §4
(2) 25 μL color development system: color development buffer (50 mM Tris pH7.5, 100 mM NaCl, 20 mM MgCl2, 0.05% BSA), in which the final concentration of diaphorase was 36 μg/mL, and the final concentration of resazurin sodium was 3 μM; 25 μL of the above-mentioned color developing solution was added to the 50 μL reaction system in (1), mixed and centrifuged, and the fluorescence value was measured immediately under Ex544/Em590.
as §5
Calculation of Extracellular 2-HG Content:
the fluorescence value obtained in the extracellular 2-HG detecting system was calculated using the 2-HG standard curve to calculate the content of 2-HG in the culture medium, and DMSO was used as a negative control to calculate the compound's inhibition against IDH1/R132H mutation producing the 2-HG activity.
The experimental steps were the same as in Example 7, except that the glioma cell U87MG overexpressing the IDH1/R132H mutation was replaced with the glioma cell U87MG overexpressing the IDH2/R140Q mutation.

[1] abbreviates: glioma cell U87MG overexpressing IDH1/R132H, 2-HG in culture medium, read-out: IC50, inhibitory activity against IDH1/R132H.
[2] abbreviates: glioma cell U87MG overexpressing IDH1/R132H, 24 hours, 2-HG in culture medium, read-out: IC50 (nM), inhibitory activity against IDH1/R132H.
Where [3] appears, read: fibrosarcoma cell HT-1080 containing IDH1/R132C, 2-HG in culture medium, read-out: IC50 (nM), inhibitory activity against IDH1/R132C.
Where [4] appears, read: fibrosarcoma cell HT-1080 containing IDH1/R132C, 2-HG in culture medium, read-out: IC50, inhibitory activity against IDH1/R132C.

T2 sequence (O75874 2-414 R132C limits assumed): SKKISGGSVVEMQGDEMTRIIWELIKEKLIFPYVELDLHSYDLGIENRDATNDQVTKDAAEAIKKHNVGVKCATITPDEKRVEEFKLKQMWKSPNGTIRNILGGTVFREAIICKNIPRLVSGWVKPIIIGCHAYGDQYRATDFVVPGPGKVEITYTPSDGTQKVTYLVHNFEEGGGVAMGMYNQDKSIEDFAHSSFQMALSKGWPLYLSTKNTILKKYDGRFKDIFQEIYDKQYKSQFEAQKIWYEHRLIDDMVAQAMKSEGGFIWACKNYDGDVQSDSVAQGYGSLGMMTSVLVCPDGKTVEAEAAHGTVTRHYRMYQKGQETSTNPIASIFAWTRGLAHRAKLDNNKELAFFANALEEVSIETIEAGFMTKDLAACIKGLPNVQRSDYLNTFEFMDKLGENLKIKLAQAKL
T1 sequence (O75874 whole entry R132H): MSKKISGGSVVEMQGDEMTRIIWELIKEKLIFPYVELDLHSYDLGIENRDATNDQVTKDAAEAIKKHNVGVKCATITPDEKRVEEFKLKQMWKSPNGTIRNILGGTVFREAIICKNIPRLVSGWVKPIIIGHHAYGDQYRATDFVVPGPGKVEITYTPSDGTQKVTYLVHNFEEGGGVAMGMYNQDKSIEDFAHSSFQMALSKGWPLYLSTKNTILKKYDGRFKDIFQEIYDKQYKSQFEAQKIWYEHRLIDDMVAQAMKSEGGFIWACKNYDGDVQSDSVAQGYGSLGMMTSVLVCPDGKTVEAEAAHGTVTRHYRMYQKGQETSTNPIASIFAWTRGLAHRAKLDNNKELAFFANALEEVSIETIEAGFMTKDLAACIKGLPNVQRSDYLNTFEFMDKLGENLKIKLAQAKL

On to `CC(C)[C@H]1COC(=O)N1c1ccnc(N[C@@H](C)c2ccc(OCCOCCOCCOCCOc3ccc([C@H](C)Nc4nccc(N5C(=O)OC[C@@H]5C(C)C)n4)nc3)cn2)n1` [Compound 2, (4S,4′S)-3,3′-(2,2′-(((1S,1′S)-(5,5′-((((oxybis(ethane-2,1-diyl))bis(oxy))bis(ethane-2,1-diyl))bis(oxy))bis(pyridine-5,2-diyl))bis(ethane-1,1-diyl))bis(azanediyl))bis(pyrimidine-4,2-diyl))bis(4-isopropyloxazolidin-2-one)], for which the IC50 on IDH1/R132H (setting [1]) was at most 5 nM; at IDH1/R132H (setting [2]), below 5 nM; at IDH1/R132C (setting [3]), below 5 nM; at IDH1/R132C (setting [4]) it was at most 5 nM; at IDH2/R140Q, above 20 µM. Moreover, the “Inhibition of IDH2/R140Q” value at IDH2/R140Q is “did not inhibit”.
For the compound `N#Cc1ccnc(N2C(=O)CC[C@H]2C(=O)N(c2cncc(F)c2)[C@H](C(=O)NC2CC(F)(F)C2)c2ccccc2Cl)c1` [AG-120, reference compound], the IC50 against IDH2/R140Q was above 20 µM.
As to `CC(C)[C@H]1COC(=O)N1c1ccnc(N[C@@H](C)c2ccc(OCCOCCOCCOc3ccc([C@H](C)Nc4nccc(N5C(=O)OC[C@@H]5C(C)C)n4)nc3)cn2)n1` [Compound 1, (4S,4′S)-3,3′-(2,2′-(((1S,1′S)-(5,5′-(((ethane-1,2-diylbis(oxy))bis(ethane-2,1-diyl))bis(oxy))bis(pyridine-5,2-diyl))bis(ethane-1,1-diyl))bis(azanediyl))bis(pyrimidine-4,2-diyl))bis(4-isopropyloxazolidin-2-one)], the IC50 on IDH1/R132H (setting [1]) was at most 5 nM; on IDH1/R132H (setting [2]), below 5 nM; at IDH1/R132C (setting [3]), below 5 nM; on IDH1/R132C (setting [4]), at most 5 nM; against IDH2/R140Q, above 20 µM. For the same compound, at IDH2/R140Q, the “Inhibition of IDH2/R140Q” value is recorded as “did not inhibit”.
Compound `CC(C)[C@H]1COC(=O)N1c1ccnc(N[C@@H](C)c2ccccc2)n1` [IDH125, reference compound] registered an IC50 at IDH2/R140Q above 20 µM.
As for `CC(C)[C@H]1COC(=O)N1c1ccnc(N[C@@H](C)c2ccccn2)n1` [Ref1, reference compound], the IC50 against IDH1/R132H is 500 to 10000 nM; against IDH1/R132C it was 500 to 10000 nM; on IDH2/R140Q, above 20 µM.
